What was measured:
[1] = ^13C breath test, oral administration, diabetic vs normal rats; type: in vivo, rat; settings: for slope from 20 to 30 min after the administration / Δ^13C value (‰) at 30 min after the administration: 300 mg/kg orally, Example 6; for slope from 12 to 17 min after the administration: 90 mg/kg orally, Example 38
Experimental: As test animals, male Sprague-Dawley strain (SD) neonatal rats were purchased from Nippon Charles River K. K. together with their lactating rats. They were bred at 23±2° C. under 55±10% humidity before use. Insulin secretion-deficient type diabetes was generated by administering streptozotocin (STZ) to neonatal rats (“Saibokogaku (Cell Engineering)”, Extra Issue, medical Experiment Manual Series, Strategy for Study of Diabetes, edited by Susumu Seino and Yoshikazu Oka, published by Shujunsha Co., Japan). STZ was subcutaneously administered to 2-day-old rats at a dose of 90 mg/kg. The STZ had been dissolved in a citrate buffer (pH 4.5) and was administered within 5 min after the dissolution. Two days after the administration, blood was collected by cardiac puncture, and the casual blood sugar level of each rat was measured with Terumo […] (blood sugar measurement set). […] However, their fasting blood sugar levels increase only slightly and remain at almost normal levels. According to the standards stipulated by the Japan Diabetes Society (1982), those individuals with a fasting blood sugar level (in venous whole blood) of […] or more are regarded as having diabetes (“[…] (Diabetes Test Manual)”, edited by Yukio […], published by Nanko-Do Co., Japan). Then, those rats with a fasting blood sugar level of less than 120 mg/dl (and with a casual blood sugar level of 250 mg/dl or more) which are not regarded as having diabetes in a fasting blood sugar level test were selected from the above-described rats with insulin secretion-deficient type diabetes and used as a model of light diabetes. Breath tests were carried out according to the method as described in (2)-1 or (2)-2 below on diabetic rats prepared in (1) above (8-10-week-old) and normal rats (8-10-week-old). Δ^13C (‰)=[(^13C t min-^13C 0 min)/^13C std]×1000 […] A blood sample was collected from the tail vein, and its sugar level was determined using Terumo […] (blood sugar measurement set). The exhalation was sucked with a stroke pump 18 (variable stroke pump VS-500; Shibata Scientific Technology) at a rate of 100-300 ml/min and introduced directly into a flow cell in ^13CO2 Analyzer EX-130S (Japan Spectroscopic Co., Ltd.) 20. […] Pure Drier ([…] Pure Inc.) was located between the rat holder and the stroke pump 18 to remove moisture in the exhalation (FIG. 1). […] The data output from the ^13CO2 analyzer 20 were incorporated into a personal computer 21 (Apple Power Macintosh 8500) after AD conversion. Using the data processing software Lab VIEW (National Instruments), data on ten points at every 100 msec were added up and averaged at intervals of 5 sec and then converted into ^13C atom %, Δ^13C (‰) and CO2 gas concentration (%), to thereby perform a continuous measurement ^13C breath test. […] Δ^13C (‰) was calculated by the formula described above.

[2] = ^13C breath test, intravenous administration (femoral vein), diabetic vs normal rats; type: in vivo, rat
Excerpt: As test animals, male Sprague-Dawley strain (SD) neonatal rats were purchased from Nippon Charles River K. K. together with their lactating rats. […] Insulin secretion-deficient type diabetes was generated by administering streptozotocin (STZ) to neonatal rats (“Saibokogaku (Cell Engineering)”, Extra Issue, medical Experiment Manual Series, Strategy for Study of Diabetes, edited by Susumu Seino and Yoshikazu Oka, published by Shujunsha Co., Japan). STZ was subcutaneously administered to 2-day-old rats at a dose of 90 mg/kg. […] Two days after the administration, blood was collected by cardiac puncture, and the casual blood sugar level of each rat was measured with Terumo […] (blood sugar measurement set). […] Breath tests were carried out according to the method as described in (2)-1 or (2)-2 below on diabetic rats prepared in (1) above (8-10-week-old) and normal rats (8-10-week-old). […] A blood sample was collected from the tail vein, and its sugar level was determined using Terumo […] (blood sugar measurement set). […] Fine Science Tools Inc.).

[3] = diabetic rats, 50 mg/kg orally, Example 33
[4] = normal rats, 50 mg/kg orally, Example 33
[5] = diabetic rats, 45 mg/kg orally, Example 26
[6] = normal rats, 45 mg/kg orally, Example 26
[7] = diabetic rats, 50 mg/kg from the femoral vein, Example 31
[8] = normal rats, 50 mg/kg from the femoral vein, Example 31
[9] = diabetic rats, 20 mg/kg from the femoral vein, Example 21
[10] = normal rats, 20 mg/kg from the femoral vein, Example 21
[11] = diabetic rats, 50 mg/kg from the femoral vein, Example 16
[12] = normal rats, 50 mg/kg from the femoral vein, Example 16
[13] = diabetic rats, 10 mg/kg from the femoral vein, Example 15
[14] = normal rats, 10 mg/kg from the femoral vein, Example 15
[15] = diabetic rats, 60 mg/kg orally, Example 17
[16] = normal rats, 60 mg/kg orally, Example 17
[17] = diabetic rats, 20 mg/kg from the femoral vein, Example 11
[18] = normal rats, 20 mg/kg from the femoral vein, Example 11
[19] = diabetic rats, 50 mg/kg from the femoral vein, Example 35
[20] = normal rats, 50 mg/kg from the femoral vein, Example 35
[21] = diabetic rats, 50 mg/kg from the femoral vein, Example 27
[22] = normal rats, 50 mg/kg from the femoral vein, Example 27
[23] = diabetic rats, 40 mg/kg from the femoral vein, Example 36
[24] = normal rats, 40 mg/kg from the femoral vein, Example 36
[25] = diabetic rats, 30 mg/kg orally, Example 7
[26] = normal rats, 30 mg/kg orally, Example 7

Compound: CCCCCCC[13C](=O)OCC(CO[13C](=O)CCCCCCC)O[13C](=O)CCCCCCC [1,1,1-^13C-trioctanoin]
- time course of Δ^13C values (‰) [1, 3]: continued increasing up to 30 min
- Δ^13C value (‰) at 20 min after the administration [1, 3]: 150.72±22.48 ‰
- time course of Δ^13C values (‰) [1, 4]: continued increasing up to 30 min
- Δ^13C value (‰) at 20 min after the administration [1, 4]: 110.16±16.08 ‰

Compound: NC(CSSCC(N)[13C](=O)O)[13C](=O)O (centres unmarked) [1-^13C-cystine]
- slope from 5 to 10 min after the administration [1, 5]: 46.82±2.94 ‰/5 min
- time course of Δ^13C values (‰) [1, 5]: continued increasing up to 30 min
- Δ^13C value (‰) at 10 min after the administration [1, 5]: 69.15±6.44 ‰
- slope from 5 to 10 min after the administration [1, 6]: 30.86±10.06 ‰/5 min
- time course of Δ^13C values (‰) [1, 6]: continued increasing up to 30 min
- Δ^13C value (‰) at 10 min after the administration [1, 6]: 45.26±8.68 ‰

Compound: CCCCCCCCCCCCCCC[13C](=O)O [1-^13C-palmitic acid]
- slope from 10 to 20 min after the administration [2, 7]: −4.40±2.21 ‰/10 min
- time course of Δ^13C values (‰) [2, 7]: increased sharply up to about 5 min after the administration, but thereafter decreased gradually up to 20 min
- slope from 10 to 20 min after the administration [2, 8]: 1.43±1.33 ‰/10 min
- time course of Δ^13C values (‰) [2, 8]: continued increasing up to 20 min

Compound: O=[13C](O)C1CCCN1 (centres unmarked) [1-^13C-proline]
- time course of Δ^13C values (‰) [2, 9]: increased up to about 9 min after the administration of 1-^13C-proline, but thereafter decreased gradually up to 20 min
- Δ^13C value (‰) at 20 min after the administration [2, 9]: 115.77±6.61 ‰
- time course of Δ^13C values (‰) [2, 10]: increased up to about 9 min after the administration of 1-^13C-proline, but thereafter decreased gradually up to 20 min
- Δ^13C value (‰) at 20 min after the administration [2, 10]: 92.27±11.10 ‰

Compound: N[C@@H](CO)[13C](=O)O [1-^13C-serine]
- slope from 1 to 4 min after the administration [2, 11]: 158.13±41.24 ‰/3 min
- time course of Δ^13C values (‰) [2, 11]: increased sharply up to about 8 min after the administration, but thereafter decreased gradually up to 20 min
- Δ^13C value (‰) at 10 min after the administration [2, 11]: 228.08±43.45 ‰
- slope from 1 to 4 min after the administration [2, 12]: 84.17±11.38 ‰/3 min
- time course of Δ^13C values (‰) [2, 12]: increased up to about 8 min after the administration of 1-^13C-serine, and thereafter remained at an almost constant level
- Δ^13C value (‰) at 10 min after the administration [2, 12]: 127.79±10.69 ‰

Compound: N[C@@H](Cc1c[nH]c2ccccc12)[13C](=O)O [1-^13C-tryptophan]
- slope from 10 to 15 min after the administration [2, 13]: 4.46±0.49 ‰/5 min
- time course of Δ^13C values (‰) [2, 13]: continued increasing up to 20 min
- Δ^13C value (‰) at 20 min after the administration [2, 13]: 19.42±4.37 ‰
- slope from 10 to 15 min after the administration [2, 14]: 1.20±0.93 ‰/5 min
- time course of Δ^13C values (‰) [2, 14]: continued increasing up to 20 min
- Δ^13C value (‰) at 20 min after the administration [2, 14]: 8.10±0.77 ‰

Compound: N[C@@H](C[13c]1ccc(O)cc1)C(=O)O [1-^13C-tyrosine]
- slope from 5 to 10 min after the administration [1, 15]: 79.62±19.90 ‰/5 min
- time course of Δ^13C values (‰) [1, 15]: increased up to about 20 min after the administration, but thereafter decreased gradually up to 30 min
- Δ^13C value (‰) at 20 min after the administration [1, 15]: 205.30±51.43 ‰
- slope from 5 to 10 min after the administration [1, 16]: 27.52±17.10 ‰/5 min
- time course of Δ^13C values (‰) [1, 16]: continued increasing up to 30 min
- Δ^13C value (‰) at 20 min after the administration [1, 16]: 73.96±35.10 ‰

Compound: CC(C)[C@H](N)[13C](=O)O [1-^13C-valine]
- slope from 2 to 4 min after the administration [2, 17]: 38.55±3.15 ‰/2 min
- time course of Δ^13C values (‰) [2, 17]: sharply increased up to about 6 min after the administration of 1-^13C-valine, and thereafter increased gradually up to 20 min
- Δ^13C value (‰) at 5 min after the administration [2, 17]: 73.54±7.30 ‰
- slope from 2 to 4 min after the administration [2, 18]: 24.17±2.32 ‰/2 min
- time course of Δ^13C values (‰) [2, 18]: sharply increased up to about 6 min after the administration of 1-^13C-valine, and thereafter increased gradually up to 20 min
- Δ^13C value (‰) at 5 min after the administration [2, 18]: 45.99±5.62 ‰

Compound: O=[13CH][C@H](O)[C@@H](O)[C@H](O)CO [1-^13C-xylose]
- slope from 20 to 30 min after the administration ([1]; diabetic rats): 12.80±2.18 ‰/10 min
- Δ^13C value (‰) at 30 min after the administration ([1]; diabetic rats): 23.40±7.60 ‰
- slope from 20 to 30 min after the administration ([1]; normal rats): 4.61±1.40 ‰/10 min
- Δ^13C value (‰) at 30 min after the administration ([1]; normal rats): 6.82±3.02 ‰

Compound: O=[13C](CO)[C@@H](O)[C@H](O)[C@H](O)CO [2-^13C-fructose]
- Δ^13C value (‰) at 20 min after the administration ([2]; rat, in vivo): 94.68 ‰
- slope from 2 to 6 min after the administration ([2]; rat, in vivo, 100 mg/kg): 21.4±1.84 ‰/4 min
- Δ^13C value (‰) at 20 min after the administration ([2]; rat, in vivo, 100 mg/kg): 58.75±2.73 ‰

Compound: O=C[13C@H](O)[C@@H](O)[C@@H](O)[C@H](O)CO [2-^13C-galactose]
- time course of Δ^13C values (‰) ([2]; rat, in vivo, 100 mg/kg): continued increasing up to 20 min

Compound: OC[13CH](O)CO [2-^13C-glycerol]
- slope from 2 to 7 min after the administration [2, 19]: 62.72±3.22 ‰/5 min
- time course of Δ^13C values (‰) [2, 19]: increased sharply up to about 8 min after the administration, and thereafter increased gradually up to 20 min
- Δ^13C value (‰) at 20 min after the administration [2, 19]: 112.44±5.12 ‰
- slope from 2 to 7 min after the administration [2, 20]: 16.99±1.61 ‰/5 min
- time course of Δ^13C values (‰) [2, 20]: continued increasing gradually up to 20 min after the administration of 2-^13C-glycerol, and thereafter remained at an almost constant level
- Δ^13C value (‰) at 20 min after the administration [2, 20]: 54.77±4.23 ‰

Compound: [13CH3]C(O)C(=O)[O-].[Na+] (centres unmarked) [3-^13C-sodium lactate]
- ^13C value (‰) at 10 min after the administration [2, 21]: 202.08±6.05 ‰
- slope from 2 to 4 min after the administration [2, 21]: 96.83±17.69 ‰/2 min
- time course of Δ^13C values (‰) [2, 21]: increased sharply up to about 7 min after the administration, but thereafter decreased gradually up to 20 min
- ^13C value (‰) at 10 min after the administration [2, 22]: 130.30±11.47 ‰
- slope from 2 to 4 min after the administration [2, 22]: 60.69±6.80 ‰/2 min
- time course of Δ^13C values (‰) [2, 22]: increased sharply up to about 5 min after the administration of 3-^13C-sodium lactate, and thereafter increased gradually up to 20 min

Compound: Cc1c(N([13CH3])[13CH3])c(=O)n(-c2ccccc2)n1C [N,N-dimethyl-^13C-aminopyrin]
- slope from 1 to 2 min after the administration [2, 23]: 95.68±16.33 ‰/min
- time course of Δ^13C values (‰) [2, 23]: increased sharply up to about 5 min after the administration, and thereafter remained at an almost constant level up to 20 min
- Δ^13C value (‰) at 20 min after the administration [2, 23]: 193.62±22.21 ‰
- slope from 1 to 2 min after the administration [2, 24]: 41.16±8.89 ‰/min
- time course of Δ^13C values (‰) [2, 24]: increased sharply up to about 3 min after the administration of N,N-dimethyl-^13C-aminopyrin, and thereafter increased gradually up to 20 min
- Δ^13C value (‰) at 20 min after the administration [2, 24]: 92.2±12.64 ‰

Compound: U-^13C-starch
- ^13C value (‰) at 30 min after the administration [1, 25]: 144.50±23.27 ‰
- time course of Δ^13C values (‰) [1, 25]: continued increasing up to 20 min
- ^13C value (‰) at 30 min after the administration [1, 26]: 213.89±4.66 ‰
- time course of Δ^13C values (‰) [1, 26]: continued increasing up to 20 min

Compound: ethoxy-^13C-methacetin
- slope from 12 to 17 min after the administration ([1]; diabetic rats): −8.40±7.67 ‰/5 min
- slope from 12 to 17 min after the administration ([1]; normal rats): 16.05±7.71 ‰/5 min

From patent US6509002B1, “Diagnostic agent for diabetes” (priority 1997, dated 2003)
